From article PMC13629022 (ACS Omega, 2026)
Read-outs that look alike come from different tables or passages of the source.

Columns and labels:
[1] = test system: IL-1β production by stimulated J774.A1 macrophages; experiment: IL-1β production by LPS + IFN-γ stimulated J774.A1 macrophages (ELISA); type: cell-based, murine; settings: compounds at 62.5 μM, Dexa 40 μM, 24 h, vs stimulated untreated cells, p < 0.05
Description: (§1) Cells were then stimulated with LPS (500 ng/mL) and IFN-γ (5 ng/mL) in the presence of either the test compounds at different concentrations (3.9–250 μM), the medium alone, or dexamethasone (40 μM, reference drug) and further incubated at 37 °C. Cell-free supernatants were collected 24 h after incubation for IL-1β, IL-6, and nitrite quantification. Cytokine concentrations in the supernatants of J774.A1 cultures were determined by enzyme-linked immunosorbent assay (ELISA) using the DuoSet kit (R&D Systems, Minneapolis, MN, USA), according to the manufacturer’s instructions. Results were expressed as picograms per milliliter (pg/mL) of IL-1β or IL-6. Quantification of nitrite as an indicator of nitric oxide production was performed using the Griess method. Three independent experiments were performed. −

[2] = test system: murine macrophage-like J774.A1 cells; experiment: Cytotoxicity to J774.A1 macrophages (Alamar Blue); settings: concentrations up to 500 μM (compounds 7 and 13 up to 250 μM)
Description: Cells were incubated for 72 h at 37 °C in a 5% CO2 atmosphere, as previously described. They were then stimulated with LPS (500 ng/mL, Sigma Chemical Co., St. Louis, MO, USA) and IFN-γ (5 ng/mL, Sigma). Compounds were added to the medium at eight concentrations ranging from 1.9 to 500 μM, in triplicate, and incubated for 24 h. Subsequently, 20 μL per well of Alamar Blue (Invitrogen, Carlsbad, CA, USA) was added to the plates for 6 h. Compounds 7, 11, and 13 were evaluated only up to a maximum concentration of 250 μM due to the limited amount of purified material available for testing. Colorimetric readings were performed at 570 and 600 nm. Triton X-100 (5%) was used as the positive control.

[3] = test system: nitric oxide production by stimulated J774.A1 macrophages; experiment: Nitric oxide production by LPS + IFN-γ stimulated J774.A1 macrophages (nitrite, Griess method); type: cell-based, murine; settings: Mus musculus
Description: as §1, with “For cytokine and nitric oxide evaluations, J774.A1 cells were seeded in 96-well tissue culture plates at 2 × 10^5 cells per well in DMEM supplemented with 10% FBS and 50 μg/mL gentamicin and incubated for 2 h at 37 °C in a 5% CO2 atmosphere, as previously described. Cells” for “Cells”

[4] = J774.A1, 24 h, read-out: efficacy: maximum effect (% of the maximum possible effect), inhibition of NO production, J774.A1 macrophages stimulated with LPS + IFN-γ, 24 h
[5] = J774.A1, 24 h, read-out: IC50, half maximal inhibitory concentration, NO production, J774.A1 macrophages stimulated with LPS (500 ng/mL) + IFN-γ (5 ng/mL), 24 h, nitrite by Griess
[6] = J774.A1, read-out: IC50 (in Figure 8 panels), nitric oxide production, Figure 8, no unit in the boxes, μM only in axis labels, LPS + IFN-γ stimulated J774.A1

IC50 ([3]; J774.A1, 24 h, J774.A1 macrophages stimulated with LPS (500 ng/mL) + IFN-γ (5 ng/mL), 24 h, nitrite by Griess, read-out: IC50, half maximal inhibitory concentration, NO production) [µM]	Structure (SMILES)	production of IL-1β (in words) [1]	cytotoxic effects in J774 macrophages (in words) [2]	Emax [3, 4] [%]	IC50 [3, 5] [µM]	IC50 [3, 6] [µM]	Emax ([3]; J774.A1, 24 h, J774.A1 macrophages stimulated with LPS + IFN-γ, 24 h, read-out: efficacy: maximum effect (% of the maximum possible effect), inhibition of NO production) [%]
–	COC1CC(OC2CCC3(C)C(CCC4(O)C3CC(OC(=O)C=Cc3ccccc3)C3(C)C(C(C)O)CCC43O)C2)OC(C)C1OC1CC(OC)C(OC2OC(C)C(OC3OC(CO)C(OC4OC(CO)C(O)C(O)C4O)C(O)C3O)C(OC)C2O)C(C)O1 [Compound 6, 12-O-cinnamoyl-(20S)-5,6,17-trihydrosarcostin-3-O-β-D-glucopyranosyl-(1 → 4)-β-D glucopyranosyl-(1 → 4)-β-D-6-deoxy-3-O-methyl-allopyranosyl-(1 → 4)-β-D oleandropyranosyl-(1 → 4)-β-D-cymaropyranoside]	did not reduce	did not induce cytotoxic effects	< 50	–	–	–
–	COC1CC(OC2C(C)OC(OC3CCC4(C)C(CCC5(O)C4CC(OC(=O)C=Cc4ccccc4)C4(C)C(C(C)O)CCC54O)C3)CC2OC(C)=O)OC(C)C1OC1OC(C)C(OC2OC(CO)C(OC3OC(CO)C(O)C(O)C3O)C(O)C2O)C(OC)C1O [Compound 7, 12-O-cinnamoyl-(20S)-5,6,17-trihydrosarcostin-3-O-β-D-glucopyranosyl-(1 → 4)-β-D-glucopyranosyl-(1 → 4)-β-D-6-deoxy-3-O-methyl-allopyranosyl-(1 → 4)-β-D-oleandropyranosyl-(1 → 4)-β-D-3′-O-acetyl-cymaropyranoside]	did not reduce	did not exhibit cytotoxicity at the concentrations tested	< 50	> 100	–	–
–	COC1CC(OC2CCC3(C)C(=CCC4(O)C3CC(OC(=O)C=Cc3ccccc3)C3(C)C(C(C)O)CCC43O)C2)OC(C)C1OC1CC(OC)C(OC2OC(C)C(O)C(OC)C2O)C(C)O1 [Compound 11, 12-O-cinnamoyl-(20S)-17-hydrosarcostin-3-O-β-D-6-deoxy-3-O-methyl-allopyranosyl-(1 → 4)-β-D-oleandropyranosyl-(1 → 4)-β-D-cymaropyranoside]	significant reduction	most cytotoxic	51.8	47.3	47.3	–
–	COC1CC(OC2C(O)CC(OC3CCC4(C)C(CCC5(O)C4CC(OC(=O)C=Cc4ccccc4)C4(C)C(C(C)O)CCC54O)C3)OC2C)OC(C)C1OC1OC(C)C(O)C(OC)C1O [Compound 12, 12-O-cinnamoyl-(20S)-5,6,17-trihydrosarcostin-3-O-β-D-6-deoxy-3-O-methyl-allopyranosyl-(1 → 4)-β-D-oleandropyranosyl-(1 → 4)-β-D-digitoxopyranoside]	did not reduce	–	62	> 100	–	–
–	COC1CC(OC2C(C)OC(OC3CCC4(C)C(CCC5(O)C4CC(OC(=O)C=Cc4ccccc4)C4(C)C(C(C)O)CCC54O)C3)CC2OC(C)=O)OC(C)C1OC1OC(C)C(O)C(OC)C1O [Compound 13, 12-O-cinnamoyl-(20S)-5,6,17-trihydrosarcostin-3-O-β-D-6-deoxy-3-O-methyl-allopyranosyl-(1 → 4)-β-D-oleandropyranosyl-(1 → 4)-β-D-3′-O-acetyl-cymaropyranoside]	significant reduction	did not exhibit cytotoxicity at the concentrations tested	59.3	42.4	42.4	–
–	COC1CC(OC2CCC3(C)C(CCC4(O)C3CC(OC(C)=O)C3(C)C(C(C)OC(=O)c5ccccc5)CCC43O)C2)OC(C)C1OC1CC(OC)C(OC2OC(C)C(O)C(OC)C2O)C(C)O1 [Compound 18, 12-O-acetyl-20-O-benzoyl-(20R)-5,6,17-trihydrosarcostin-3-O-β-D-6-deoxy-3-O-methyl-allopyranosyl-(1 → 4)-β-D-oleandropyranosyl-(1 → 4)-β-D-cymaropyranoside]	significant reduction	–	< 50	66.2	66.2	–
4.8	C[C@@H]1C[C@H]2[C@@H]3CCC4=CC(=O)C=C[C@]4(C)[C@@]3(F)[C@@H](O)C[C@]2(C)[C@@]1(O)C(=O)CO [Dexa, dexamethasone, reference compound]	–	–	–	–	–	51.6
